Counter-ions that a name gives are not always drawn.

We go through 28 compounds from patent US11878966B2, “Substituted 4-benzyl and 4-benzoyl piperidine derivates” (89BIO LTD, priority 2015, dated 2024).

Series [1] concerns the target T1, recombinant human baculovirus-expressed GST-tagged FASN (Homo sapiens, UniProt P49327).
T1 construct: GST; host or cells: baculovirus expression system (insect cells implied)
Put plainly: FASN enzyme activity assay: fluorescence-based detection of CoA with CPM. In kind it is biochemical. The conditions noted are these: 5 nM FASN, 150 μM NADPH, 10 μM acetyl-CoA, 25 μM malonyl-CoA, 90 minutes incubation. In outline: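 GST-tagged human FASN (5 nM, baculovirus-expressed) in 50 mM HEPES pH 7.5 with 150 μM NADPH, 10 μM acetyl-CoA and 25 μM malonyl-CoA, 0.5% DMSO, started with malonyl-CoA and run 90 min. CoA was detected with CPM (30 min; ex 390/em 530 nm). IC50 came from sigmoidal variable-slope fits of % inhibition.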

T1 sequence (P49327 whole entry): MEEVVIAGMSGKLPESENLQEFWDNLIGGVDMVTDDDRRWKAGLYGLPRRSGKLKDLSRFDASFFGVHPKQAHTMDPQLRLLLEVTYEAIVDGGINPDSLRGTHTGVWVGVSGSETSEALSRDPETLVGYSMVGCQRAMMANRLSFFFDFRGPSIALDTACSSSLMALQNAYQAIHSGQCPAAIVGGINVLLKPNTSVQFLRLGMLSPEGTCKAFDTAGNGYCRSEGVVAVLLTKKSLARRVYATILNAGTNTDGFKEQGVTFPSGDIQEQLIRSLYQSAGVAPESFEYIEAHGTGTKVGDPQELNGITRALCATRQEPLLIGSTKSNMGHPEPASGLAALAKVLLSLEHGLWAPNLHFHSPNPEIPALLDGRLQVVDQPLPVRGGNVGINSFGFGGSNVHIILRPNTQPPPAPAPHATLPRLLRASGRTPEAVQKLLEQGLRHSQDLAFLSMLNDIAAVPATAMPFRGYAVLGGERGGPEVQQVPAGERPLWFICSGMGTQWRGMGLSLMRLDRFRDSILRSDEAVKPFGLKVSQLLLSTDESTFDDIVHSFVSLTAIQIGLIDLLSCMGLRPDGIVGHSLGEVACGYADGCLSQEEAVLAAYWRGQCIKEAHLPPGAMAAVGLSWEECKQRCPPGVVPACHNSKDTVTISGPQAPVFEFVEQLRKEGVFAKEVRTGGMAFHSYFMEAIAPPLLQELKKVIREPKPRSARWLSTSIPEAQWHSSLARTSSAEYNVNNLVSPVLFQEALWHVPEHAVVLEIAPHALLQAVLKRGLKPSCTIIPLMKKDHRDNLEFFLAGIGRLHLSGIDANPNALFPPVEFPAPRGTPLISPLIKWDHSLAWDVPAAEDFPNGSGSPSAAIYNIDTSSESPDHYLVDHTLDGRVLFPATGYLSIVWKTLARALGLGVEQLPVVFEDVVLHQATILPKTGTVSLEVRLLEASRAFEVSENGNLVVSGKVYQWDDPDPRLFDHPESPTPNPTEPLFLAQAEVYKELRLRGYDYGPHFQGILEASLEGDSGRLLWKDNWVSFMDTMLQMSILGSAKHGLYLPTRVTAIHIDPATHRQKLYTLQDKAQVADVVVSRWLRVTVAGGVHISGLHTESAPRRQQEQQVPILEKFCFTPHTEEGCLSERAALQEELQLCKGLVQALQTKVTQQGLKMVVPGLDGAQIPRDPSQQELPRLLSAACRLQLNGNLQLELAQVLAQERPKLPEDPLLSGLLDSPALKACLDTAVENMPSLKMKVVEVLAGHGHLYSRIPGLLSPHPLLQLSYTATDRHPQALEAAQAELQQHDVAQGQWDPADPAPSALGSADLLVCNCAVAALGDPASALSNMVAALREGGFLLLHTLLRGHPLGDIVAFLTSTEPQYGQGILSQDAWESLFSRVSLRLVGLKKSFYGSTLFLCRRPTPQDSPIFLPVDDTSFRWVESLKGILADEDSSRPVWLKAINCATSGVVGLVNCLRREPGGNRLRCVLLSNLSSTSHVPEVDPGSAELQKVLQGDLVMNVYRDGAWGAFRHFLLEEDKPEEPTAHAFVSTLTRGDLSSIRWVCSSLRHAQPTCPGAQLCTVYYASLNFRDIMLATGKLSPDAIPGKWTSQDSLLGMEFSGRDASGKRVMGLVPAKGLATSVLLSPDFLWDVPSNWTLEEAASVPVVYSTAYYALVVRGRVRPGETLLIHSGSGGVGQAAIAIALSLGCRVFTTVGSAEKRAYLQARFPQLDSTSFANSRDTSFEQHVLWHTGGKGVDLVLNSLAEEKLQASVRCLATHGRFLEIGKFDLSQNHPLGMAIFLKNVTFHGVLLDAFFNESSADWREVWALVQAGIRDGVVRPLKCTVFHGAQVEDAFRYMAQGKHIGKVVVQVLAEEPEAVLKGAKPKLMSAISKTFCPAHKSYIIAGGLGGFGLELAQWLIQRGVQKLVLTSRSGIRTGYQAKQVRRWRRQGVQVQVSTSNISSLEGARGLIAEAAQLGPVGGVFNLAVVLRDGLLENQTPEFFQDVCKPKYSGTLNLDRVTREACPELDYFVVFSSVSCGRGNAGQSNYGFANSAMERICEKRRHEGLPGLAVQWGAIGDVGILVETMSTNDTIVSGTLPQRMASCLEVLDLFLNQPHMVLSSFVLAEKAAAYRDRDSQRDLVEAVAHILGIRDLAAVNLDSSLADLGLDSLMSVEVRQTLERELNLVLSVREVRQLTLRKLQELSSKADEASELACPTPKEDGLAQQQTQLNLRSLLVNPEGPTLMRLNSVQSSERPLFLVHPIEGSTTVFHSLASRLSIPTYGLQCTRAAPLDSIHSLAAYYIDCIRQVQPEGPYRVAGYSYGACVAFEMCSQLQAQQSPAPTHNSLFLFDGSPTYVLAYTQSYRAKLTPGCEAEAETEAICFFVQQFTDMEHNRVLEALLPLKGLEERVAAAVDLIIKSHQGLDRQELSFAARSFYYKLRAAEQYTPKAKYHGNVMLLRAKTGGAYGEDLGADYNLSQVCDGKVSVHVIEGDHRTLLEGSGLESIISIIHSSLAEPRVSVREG

Turning to `CCC(=O)N1CCC(C(C)c2ccc(-c3cnc4ccccc4c3)cc2)CC1` (stereo not shown) (as salt: HCl) [Example 39, 1-(4-(1-(4-(quinolin-3-yl)phenyl)ethyl)piperidin-1-yl)propan-1-one], the melting point (usually the temperature, or range, at which the solid turns liquid) was in the range of 178 to 180 °C.
Consider `CCC(=O)N1CCC(C(C)c2ccc(-c3cnc4ccccc4c3)cc2)CC1` (single isomer, unassigned) (as salt: HCl) [Example 67, 1-{4-[1-(4-Quinolin-3-yl-phenyl)-ethyl]-piperidin-1-yl}-propan-1-one], for which the melting point is 215 to 219 °C.
Compound `CCC(=O)N1CCC(C(C)c2ccc(-c3cnc4ccccc4c3)cc2)CC1` (single isomer, unassigned) (as salt: HCl) [Example 68, 1-{4-[1-(4-Quinolin-3-yl-phenyl)-ethyl]-piperidin-1-yl}-propan-1-one] showed a melting point of 219 to 221 °C.
For `CCC(=O)N1CCC(C(C)c2ccc(-c3ccc4c(c3)NCCC4)cc2)CC1` (stereo not shown) [Example 38, 1-(4-(1-(4-(1,2,3,4-tetrahydroquinolin-7-yl)phenyl)ethyl)piperidin-1-yl)propan-1-one], the melting point fell in the range of 169 to 171 °C. Also, the IC50 (usually the midpoint of a concentration-inhibition curve) in series [1] was in the range of 1000 to 10000 nM.
For `CCC(=O)N1CCC(C2(c3ccc(-c4cnc5ccccc5c4)cc3)CC2)CC1` [Example 40, 1-{4-[1-(4-quinolin-3-yl-phenyl)-cyclopropyl]-piperidin-1-yl}-propan-1-one], the melting point is 153 to 155 °C. The IC50 in series [1] fell in the range of 1 to 99 nM.
As to `C=C(c1ccc(-c2cnc3ccccc3c2)cc1)C1CCN(C(=O)C2CC2)CC1` [Example 41, Cyclopropyl-{4-[1-(4-quinolin-3-yl-phenyl)-vinyl]-piperidin-1-yl}-methanone], the melting point fell in the range of 100 to 102 °C. For the same compound, the IC50 in series [1] was in the range of 1 to 99 nM.
On the same counts, the results for `COc1c(-c2ccc(CC3(C#N)CCN(C(=O)[C@H]4CCCO4)CC3)cc2)ccc2cccnc12` [Example 91, 4-[4-(8-Methoxyquinolin-7-yl)-benzyl]-1-((R)-tetrahydrofuran-2-carbonyl)-piperidine-4-carbonitrile] are 102 to 105 °C and 1 to 99 nM.
The corresponding values for `CC(C)C(=O)N1CCC(O)(Cc2ccc(-c3ccc4cnccc4c3)cc2)CC1` [Example 147, 1-[4-Hydroxy-4-(4-isoquinolin-6-yl-benzyl)-piperidin-1-yl]-2-methyl-propan-1-one] are 175 °C and 1000 to 10000 nM.
The corresponding values for `CCC(=O)N1CCC(O)(Cc2ccc(-c3cnc4ccccc4c3)cc2)CC1` [Example 148, 1-(4-hydroxy-4-(4-(quinolin-3-yl)benzyl)piperidin-1-yl)propan-1-one] are 89 °C and 1000 to 10000 nM.
`CC(C)C(=O)N1CCC(O)(Cc2ccc(-c3cnc4ccccc4c3)cc2)CC1` [Example 149, 1-(4-hydroxy-4-(4-(quinolin-3-yl)benzyl)piperidin-1-yl)-2-methylpropan-1-one] registered a melting point of 168 °C. Besides, the IC50 in series [1] is 1000 to 10000 nM.
On the same counts, the results for `CCC(=O)N1CCC(O)(Cc2ccc(-c3ccc4cccnc4c3)cc2)CC1` [Example 150, 1-(4-hydroxy-4-(4-(quinolin-7-yl)benzyl)piperidin-1-yl)propan-1-one] are 171 °C and 100 to 999 nM.
The corresponding values for `CC(C)C(=O)N1CCC(O)(Cc2ccc(-c3ccc4cccnc4c3)cc2)CC1` [Example 151, 1-(4-hydroxy-4-(4-(quinolin-7-yl)benzyl)piperidin-1-yl)-2-methylpropan-1-one] are 153 °C and 1000 to 10000 nM.
On the same counts, the results for `CCC(=O)N1CCC(O)(Cc2ccc(-c3ccc4occc4c3)cc2)CC1` [Example 152, 1-(4-(4-(benzofuran-5-yl)benzyl)-4-hydroxypiperidin-1-yl)propan-1-one] are 76 °C and 1000 to 10000 nM.
For the compound `CC(C)C(=O)N1CCC(O)(Cc2ccc(-c3ccc4occc4c3)cc2)CC1` [Example 153, 1-(4-(4-(benzofuran-5-yl)benzyl)-4-hydroxypiperidin-1-yl)-2-methylpropan-1-one], the melting point is 129 °C. The IC50 in series [1] was in the range of 1000 to 10000 nM.
The corresponding values for `CCC(=O)N1CCC(O)(Cc2ccc(-c3ccc4[nH]ccc4c3)cc2)CC1` [Example 154, 1-(4-(4-(1H-indol-5-yl)benzyl)-4-hydroxypiperidin-1-yl)propan-1-one] are 100 °C and 1000 to 10000 nM.
`CC(C)C(=O)N1CCC(O)(Cc2ccc(-c3ccc4[nH]ccc4c3)cc2)CC1` [Example 155, 1-(4-(4-(1H-indol-5-yl)benzyl)-4-hydroxypiperidin-1-yl)-2-methylpropan-1-one] had a melting point of 176 °C. Besides, the IC50 in series [1] was in the range of 1000 to 10000 nM.
The corresponding values for `CCC(=O)N1CCC(O)(Cc2ccc(-c3cc4ccccc4o3)cc2)CC1` [Example 156, 1-(4-(4-(benzofuran-2-yl)benzyl)-4-hydroxypiperidin-1-yl)propan-1-one] are 174 °C and 1000 to 10000 nM.
The corresponding values for `CC(C)C(=O)N1CCC(O)(Cc2ccc(-c3cc4ccccc4o3)cc2)CC1` [Example 157, 1-(4-(4-(benzofuran-2-yl)benzyl)-4-hydroxypiperidin-1-yl)-2-methylpropan-1-one] are 203 °C and 1000 to 10000 nM.
In turn, `CCC(=O)N1CCC(O)(Cc2ccc(-c3cncc4ccccc34)cc2)CC1` [Example 158, 1-(4-hydroxy-4-(4-(isoquinolin-4-yl)benzyl)piperidin-1-yl)propan-1-one] came in with a melting point of 78 °C. Also, in series [1], the IC50 lay within 1000 to 10000 nM.
In turn, `CC(C)C(=O)N1CCC(O)(Cc2ccc(-c3cncc4ccccc34)cc2)CC1` [Example 159, 1-(4-hydroxy-4-(4-(isoquinolin-4-yl)benzyl)piperidin-1-yl)-2-methylpropan-1-one] showed a melting point of 196 °C. The IC50 in series [1] lay within 1000 to 10000 nM.
For `CCC(=O)N1CCC(O)(Cc2ccc(-c3ccc4cnccc4c3)cc2)CC1` [Example 160, 1-(4-hydroxy-4-(4-(isoquinolin-6-yl)benzyl)piperidin-1-yl)propan-1-one], the melting point stood at 94 °C. In series [1], the IC50 is 100 to 999 nM.
Regarding `CCNC(=O)N1CCC(F)(Cc2ccc(-c3ccc4cccnc4c3C)cc2)CC1` [Example 228, N-ethyl-4-fluoro-4-[[4-(8-methyl-7-quinolyl)phenyl]methyl]piperidine-1-carboxamide], the IC50 in series [1] is 1 to 99 nM.
Regarding `CCNC(=O)N1CCC(Cc2ccc(-c3ccc4cccnc4c3C)cc2)CC1` [Example 229, N-ethyl-4-[[4-(8-methyl-7-quinolyl)phenyl]methyl]piperidine-1-carboxamide], the IC50 in series [1] was 1 to 99 nM.
On the same count and under the same terms, to `CCNC(=O)N1CCC(Cc2ccc(-c3ccc4cccnc4c3OC)cc2)CC1` [Example 230, N-ethyl-4-[[4-(8-methoxy-7-quinolyl)phenyl]methyl]piperidine-1-carboxamide] belongs 1 to 99 nM.
Regarding `CONC(=O)N1CCC(Cc2ccc(-c3ccc4cccnc4c3C)cc2)CC1` [Example 231, N-methoxy-4-[[4-(8-methyl-7-quinolyl)phenyl]methyl]piperidine-1-carboxamide], the IC50 in series [1] fell in the range of 1 to 99 nM.
Regarding `CCONC(=O)N1CCC(Cc2ccc(-c3ccc4cccnc4c3C)cc2)CC1` [Example 232, N-ethoxy-4-[[4-(8-methyl-7-quinolyl)phenyl]methyl]piperidine-1-carboxamide], in series [1], the IC50 is 1 to 99 nM.
`Cc1c(-c2ccc(CC3CCN(C(=O)N(C)C)CC3)cc2)ccc2cccnc12` [Example 233, N,N-dimethyl-4-[[4-(8-methyl-7-quinolyl)phenyl]methyl]piperidine-1-carboxamide]: the concentration for half-maximal inhibition (IC50) in series [1] is 1 to 99 nM.
The same measure, in the same setting: to `Cc1c(-c2ccc(CC3CCN(C(=O)N4CCCC4)CC3)cc2)ccc2cccnc12` [Example 234, [4-[[4-(8-methyl-7-quinolyl)phenyl]methyl]-1-piperidyl]-pyrrolidin-1-yl-methanone] belongs 1 to 99 nM.
